The source of these data is patent EP2296651B1, “5-HYDROXYMETHYL-OXAZOLIDIN-2-ONE DERIVATIVES FOR TREATING BACTERIAL INTESTINAL DISEASES” (Actelion Pharmaceuticals Ltd., priority 2008, dated 2009).

Structures are written as SMILES. In brackets after ≈: the same amount, converted by molar mass.

In one test the test system is C. difficile ATCC 43596. Description: Broth microdilution MIC, anaerobic. Format: cell-based, Clostridium difficile. The conditions noted are these: Clostridioides difficile, ATCC43596, 48h at 37°C, read-out: MIC regarding C. difficile ATCC 43596. A general note: Dilution methods test growth across graded concentrations, often in twofold steps.
For test [1], the system named is Bacteroides fragilis A-293 B 2518. Description: Agar dilution MIC, anaerobic strains. Type of test: cell-based. The conditions noted are these: A293B2518, 48 h. On the technique in general: In agar dilution, organisms are placed on agar that contains the substance at set levels.
Test [2] has as its system Bacteroides fragilis A-260 T 9865. The experiment in a line: Agar dilution MIC, anaerobic strains. As to conditions: A260T9865, 48 h. Format: cell-based.
Test [3] relates to C. difficile A-1050 (ATCC 43596). Description: Spore formation at sub-MIC concentrations. Type of test: cell-based. As to conditions: 0.5x the MIC; 4 days anaerobic incubation at 37°C.
In test [4] the test system is toxigenic C difficile strain 10465. Description: C. difficile hamster model. Format: in vivo, Golden Syrian hamsters. The method, then:
Golden Syrian hamsters were given a single injection of clindamycin phosphate (10 mg/kg s.c.), and a day later animals were infected by gavage with 10^5 CFU of toxigenic C difficile strain 10465. A fulminant colitis results in the majority (∼95%) of animals and develops 1 to 2 days after the administration of C. difficile. Untreated, the colitis progresses rapidly and turns into severe colitis, hemorrhagic necrosis of the cecum and death. The compound of Example 1 was administered orally as a suspension at three dosage levels (10 mg/kg, 30 mg/kg and 100 mg/kg; n = 10 per group). Vancomycin (50 mg/kg) was used as a control. Animals were treated once daily for 5 days and afterwards maintain under observation for an additional 21 days.
The animals were observed three times daily for morbidity and presence or absence of diarrhoea. The final endpoint of the study was survival. Animals judged to be in a moribund state [extended period of weight loss progressing to an emaciated state, anorexia for 24-48 h, prolonged lethargy (more than 3 days), signs of paralysis, skin erosions or trauma, hunched posture, distended abdomen] were euthanized by a single injection of sodium pentobarbital.

The next test has as its system E. faecalis ATCC 29212. Description: Broth microdilution MIC, aerobic Gram-positive bacteria. The conditions noted are these: Enterococcus faecalis, ATCC29212, 48 h.
The test system of another test is E. faecalis H 6897. The test is described as above. The conditions noted are these: Enterococcus faecalis, H6897, 48 h.
For another test, the system named is E. faecalis H 7094. The description is as above. As to conditions: Enterococcus faecalis, H7094, 48 h.
The next test concerns E. faecium H 9070. The description is as above. As to conditions: Enterococcus faecium, H9070, 48 h.
In another test the test system is E. faecium H 7937. The test is described as above. As to conditions: Enterococcus faecium, H7937, 48 h.
The next test deals with E. faecium L1 (LZD-R). The test is described as above. The conditions noted are these: Enterococcus faecium, 48 h.
Where [5] appears, read: 100 mg/kg orally once daily for 5 days.

For orientation: MIC means the smallest concentration in the dilution series that meets the test's criterion for growth inhibition. Regarding `O=C(O)c1cn(C2CC2)c2cc(N3CCC(O)(COc4ccc(N5C[C@H](CO)OC5=O)cc4F)CC3)c(F)cc2c1=O` [Example 1, 1-cyclopropyl-6-fluoro-7-{4-[2-fluoro-4-((R)-5-hydroxymethyl-2-oxo-oxazolidin-3-yl)-phenoxymethyl]-4-hydroxy-piperidin-1-yl}-4-oxo-1,4-dihydro-quinoline-3-carboxylic acid], the MIC stood at 0.125 µg/mL (≈ 0.213 µM) in the test on C. difficile ATCC 43596; 4 µg/mL (≈ 6.83 µM) in test [1]; 4 µg/mL (≈ 6.83 µM) in test [2]; 0.25 µg/mL (≈ 0.427 µM) in the test on E. faecalis ATCC 29212; 1 µg/mL (≈ 1.71 µM) against E. faecalis H 6897; 0.5 µg/mL (≈ 0.854 µM) in the test with E. faecalis H 7094. For the same molecule, the MIC with E. faecium H 9070 worked out at 1 µg/mL (≈ 1.71 µM); in the test on E. faecium H 7937, 0.25 µg/mL (≈ 0.427 µM); with E. faecium L1 (LZD-R) it was 2 µg/mL (≈ 3.42 µM). The “spores of total cell count” value in [3] is recorded as below 1%. Moreover, the “survival during the 5 day treatment period” value in test [4] (10 mg/kg orally once daily for 5 days), in test [4] (30 mg/kg orally once daily for 5 days) and in test [4] (setting [5]) was “all” in each case. For the same molecule, the “animals survived without relapse, relapse phase of 21 days after treatment” value in test [4] (setting [5]) came to 100%.
